Measurements published in patent US12528840B2, “Transcription active complex targeting cancer drug from viral protein sequence” (The Regents of the University of California, priority 2020, dated 2026).

Test system: BCBL-1 cells
Settings: MTT, compared to Mut d1-1 control peptide
From the text: FIG. 8. Amino acid conservation among different gamma-herpesviral transactivator proteins. […] DE; D substitute to glutamic acid, DS: D substituted for serine. ST; serine substituted for threonine (marked in red).
Amino acid sequence alignment identified homologous protein sequences in other gamma-herpesvirus protein sequence (The Top table in FIG. 8a, also shown in FIG. 2). Based on their alignment, “non-natural” protein sequences were generated by substituting specific amino acids (The peptides are: Wt d1-1, DS 3-1, DE 3-1, and Mut d1-1 (control peptide) from the top to the bottom in the Bottom Table in FIG. 8a). Those four peptides were used in MTT assays in FIG. 8b to examine the effects on cell growth of BCBL-1 […] effusion lymphoma (PEL) cell line. Also tested are three D-amino acid substitutions first two amino acids and c-terminal amino acid (ST d3-1), in comparison with one D-amino acid peptide (N-terminus) (Wt d3-1).

Row | Substance | killing of BCBL-1 cells in vitro
1 | d-Arg-KKRR-Ornithine-RRR-B-alanine-LSSILQGLYQL-d-Asp-d Glu [DE 3-1] | killed BCBL-1 cells in vitro at similar efficacies
2 | d-Arg-KKRR-Ornithine-RRR-B-alanine-LSSILQGLYQL-d-Asp-d Ser [DS 3-1] | killed BCBL-1 cells in vitro at similar efficacies
3 | d-Arg-KKRR-Ornithine-RRR-B-alanine-LSSILQGLYQL-d-Asp-d Thr [Wt d3-1] | killed BCBL-1 cells in vitro at similar efficacies
4 | d-Arg-KKRR-Ornithine-RRR-B-alanine-LSTILQGLYQL-d-Asp-d Thr [ST d3-1] | killed BCBL-1 cells in vitro at similar efficacies
5 | d-Arg-KKRR-Ornithine-RRR-β-alanine-LSSILQGLYQLDT [Wt d1-1] | killed BCBL-1 cells in vitro at similar efficacies
